Reference: patent US5352608A (priority 1992, dated 1994)
“Also recorded” adds a separate entry of the source. Like-named read-outs stand apart in the source and are kept apart here.

Tests used:
R. sphaeroides 2.4.1 = type: cell-based, Rhodobacter sphaeroides
[1] = system: Rhodobacter sphaeroides 2.4.1; type: cell-based
[2] = system: Rhodopseudomonas palustris 1e5; experiment: Intrinsic HLR to TeO3^2- (MIC); type: cell-based
E. coli = conditions: exogenously supplied L-methionine; Scala and Williams; cited from earlier work
[3] = Table 4, photoheterotrophic, 2 mM PO4^3-, 10 W/m^2
[4] = Table 4, photoheterotrophic, SMM succinate, 10 W/m^2

| Compound | Gas evolution in words (R. sphaeroides 2.4.1) | Reduction to elemental state (R. sphaeroides 2.4.1) | Resistance in words [1] | MIC Low-PO4^3- Medium [1] | MIC Standard Medium [1] | also measured |
| --- | --- | --- | --- | --- | --- | --- |
| [Na+].[Na+].[O]=[W](=[O])([O-])[O-] [Na2 WO4] | no gas was evolved | not reduced to their elemental states | resistance was shown | – | – | Effect of extracellular phosphate on resistance [1]: unaffected by extracellular phosphate levels; MIC Low-PO4^3- Medium [1, 3]: 1600 µg/mL; MIC Standard Medium [1, 4]: 1600 µg/mL |
| O=[Si]([O-])[O-].[Na+].[Na+] [Na2 SiO3] | no gas evolution was observed | Neither IO4^-, SiO3^2-, nor SiO^42- was reduced to its elemental state | resistance was shown | 100 µg/mL | 400 µg/mL | Decrease in resistance when extracellular phosphate reduced ten-fold [1]: three- to four-fold; Intrinsic resistance relative to γ-3 Proteobacteria [1]: twenty-fold |
| N[C@@H](CCC(=O)N[C@@H](CS)C(=O)NCC(=O)O)C(=O)O [glutathione, reference compound] | – | – | – | – | – | Effect of medium supplement on HLR [1]: Neither cystine, glutathione nor thioglycollate, however, decreased HLR |
| O=C(O)CS [thioglycollate, reference compound] | – | – | – | – | – | Effect of medium supplement on HLR [1]: Neither cystine, glutathione nor thioglycollate, however, decreased HLR |
| N[C@@H](CS)C(=O)O [L-cysteine, reference compound] | – | – | – | – | – | Effect of medium supplement on HLR [1]: solely responsible for the increased sensitivity to TeO3^2- |
| O.O.O.O.O.[O]=[Rh][O][Rh]=[O] [Rh2 O3.5H2 O, rhodium sesquioxide] | – | – | High level resistance; also recorded: shows resistance | sat'd sol'n | sat'd sol'n | Appearance of cells / metal deposit (R. sphaeroides 2.4.1): grayish bronze; Effect on cell growth as saturated solution [1]: did not affect cell growth; Relative toxicity [1]: SeO4^2- >TeO4^2- >TeO3^2- >SeO3^2- >Rh2 O3.5H2 O |
| O=S([O-])[O-].[Na+].[Na+] [Na2 SO3] | no gas was evolved | not reduced to their elemental states | resistance was shown | 500 µg/mL | 600 µg/mL | Effect of extracellular phosphate on resistance [1]: unaffected by extracellular phosphate levels |
| [O]=[Mo](=[O])=[O] [MoO3] | – | – | shows resistance | sat'd sol'n | sat'd sol'n | Effect on cell growth as saturated solution [1]: did not affect cell growth |
| [O]=[Sn]=[O] [SnO2] | – | – | shows resistance | sat'd sol'n | sat'd sol'n | Effect on cell growth as saturated solution [1]: did not affect cell growth |
| Na2 HAsO4 | no gas was evolved | not reduced to their elemental states | resistance was shown | – | – | Effect of extracellular phosphate on resistance [1]: unaffected by extracellular phosphate levels; MIC Low-PO4^3- Medium [1, 3]: 1600 µg/mL; MIC Standard Medium [1, 4]: 1500 µg/mL |
| Na2 SiO4 | no gas evolution was observed | Neither IO4^-, SiO3^2-, nor SiO^42- was reduced to its elemental state | resistance was shown | 100 µg/mL | 300 µg/mL | Decrease in resistance when extracellular phosphate reduced ten-fold [1]: three- to four-fold; Intrinsic resistance relative to γ-3 Proteobacteria [1]: twenty-fold |
| [K+].[O]=[Mn](=[O])(=[O])[O-] [KMnO4] | – | – | – | < 10 µg/mL | 20 µg/mL | MIC [1]: < 20 µg/mL |
| O=[Se](=O)([O-])[O-].[Na+].[Na+] [Na2 SeO4] | – | – | High level resistance | 100 µg/mL | 150 µg/mL | Appearance of cells / metal deposit (R. sphaeroides 2.4.1): bright red in color; Relative toxicity [1]: SeO4^2- >TeO4^2- >TeO3^2- >SeO3^2- >Rh2 O3.5H2 O |
| O=[Se]([O-])[O-].[Na+].[Na+] [Na2 SeO3] | – | – | High level resistance | 500 µg/mL | 800 µg/mL | Appearance of cells / metal deposit (R. sphaeroides 2.4.1): bright red in color; Relative toxicity [1]: SeO4^2- >TeO4^2- >TeO3^2- >SeO3^2- >Rh2 O3.5H2 O |
| O=[Te](=O)([O-])[O-].[K+].[K+] [K2 TeO4] | Copious gas evolution | – | High level resistance | 500 µg/mL | 500 µg/mL | Appearance of cells / metal deposit (R. sphaeroides 2.4.1): intracellular accumulation of a dense metal deposit; Intrinsic resistance relative to E. coli [2]: 40 times; Relative toxicity [1]: SeO4^2- >TeO4^2- >TeO3^2- >SeO3^2- >Rh2 O3.5H2 O |
| Na2 SnO4 | no gas was evolved | not reduced to their elemental states | resistance was shown | 800 µg/mL | 800 µg/mL | Effect of extracellular phosphate on resistance [1]: unaffected by extracellular phosphate levels |
| [NH4+].[O]=[V](=[O])[O-] [NH4 VO3] | – | – | shows resistance | sat'd sol'n | sat'd sol'n | Effect on cell growth as saturated solution [1]: did not affect cell growth |
| N[C@@H](CSSC[C@H](N)C(=O)O)C(=O)O [cystine, reference compound] | – | – | – | – | – | Effect of medium supplement on HLR [1]: Neither cystine, glutathione nor thioglycollate, however, decreased HLR |
| [O-2].[O-2].[O-2].[Sb+3].[Sb+3] [Sb2 O3] | – | – | shows resistance | sat,d sol'n | sat'd sol'n | Effect on cell growth as saturated solution [1]: did not affect cell growth |
| CSCC[C@H](N)C(=O)O [L-methionine, reference compound] | – | – | – | – | – | TeO3^2- resistance enhancement by L-methionine (E. coli): two-fold; Effect of medium supplement on HLR [1]: no affect on HLR to TeO3^2- |
| [Na+].[Na+].[O]=[Mo](=[O])([O-])[O-] [Na2 MoO4] | no gas was evolved | not reduced to their elemental states | resistance was shown | – | – | Effect of extracellular phosphate on resistance [1]: unaffected by extracellular phosphate levels; MIC Low-PO4^3- Medium [1, 3]: 1500 µg/mL; MIC Standard Medium [1, 4]: 1400 µg/mL |
| [Na+].[Na+].[O]=[Cr](=[O])([O-])[O-] [Na2 CrO4] | – | – | – | 20 µg/mL | 10 µg/mL | MIC [1]: < 20 µg/mL |
| [O-][I+3]([O-])([O-])O [IO4^-] | no gas evolution was observed | Neither IO4^-, SiO3^2-, nor SiO^42- was reduced to its elemental state | resistance was shown | – | – | Decrease in resistance when extracellular phosphate reduced ten-fold [1]: three- to four-fold; Intrinsic resistance relative to γ-3 Proteobacteria [1]: twenty-fold |
| [O]=[Cr](=[O])=[O] [CrO3] | – | – | – | < 10 µg/mL | 20 µg/mL | MIC [1]: < 20 µg/mL |
| NaSiO4 | – | – | – | 150 µg/mL | 400 µg/mL | – |
